Data: patent publication US6416737B1, “Increasing bone strength with selected bisphosphonates” (Board of Trustees of the University of Arkansas, priority 1998, dated 2002)

Columns and labels:
[1] = rats, intravenously; cited from earlier work
[2] = test system: osteoblastic cells derived from murine calvaria; assay: Apoptosis of osteoblastic cells derived from murine calvaria by trypan blue uptake; assay type: cell-based; conditions: 10^−7 M, 1 h pretreatment; 6 h
osteocytic MLO-Y4 cells = assay: TUNEL reaction in MLO-Y4 cells; assay type: cell-based, murine; conditions: 10^−7 M alendronate 1 h and/or 10^−6 M dexamethasone 6 h
Method: (§1) MLO-Y4 osteocytic cells and calvaria osteoblastic cells were treated for 1 hour in the absence or presence of different BPs or sCT. Subsequently, dexamethasone, etoposide or TNF-α were added to obtain final concentrations of 10^−6 M, […], or 1 nM, respectively, and cells were incubated for additional 6 h. The effect of PD98059 (50 μM) or UO126 (1 μM) was evaluated by pretreating the cells with the inhibitors for 30 min before adding the BPs or sCT. In the experiment using the membrane permeable caspase inhibitor DEVD, cells were cultured for 1 hour with 50 nM DEVD-CHO and subsequently the pro-apoptotic agents were added to reach the final concentrations indicated above. […] At least 500 cells from fields selected by systematic random sampling were examined for each experimental condition. […] The TUNEL reaction was performed according to the manufacturer's instructions, using 0.15% CuSO4 for color enhancement. Negative controls were made by omitting the transferase from the reaction. Cells presenting brown nuclear staining were considered positive. More than 500 cells per condition were analyzed. Apoptosis of parental MLO-Y4 or calvaria cells was quantified by trypan blue staining (Jilka, et al., 1998. J. Bone Miner. Res. 13:793-802). Nonadherent cells were combined with adherent cells released from the culture dish using trypsin-EDTA, resuspended in medium containing serum, and collected by centrifugation. […] At least 100 cells per condition were counted.

MLO-Y4 osteocytic cells = conditions: for inhibition of glucocorticoid-induced apoptosis: then dexamethasone 10^−6 M for 6 h
Method: The murine long bone-derived osteocytic cell line MLO-Y4 was provided by Dr. Lynda Bonewald (University of Texas Health Center at San Antonio, Tex.). Cells were cultured in phenol red-free αMEM supplemented with 5% FBS, 5% bovine calf serum, 100 U/ml penicillin and 100 μg/ml streptomycin. Cells were plated at 1-2×10^4 cells/cm^2 on collagen type I coated plates, as described previously (Kato, et al., 1997. J. Bone Miner. Res. 12:2014-2023). Murine calvaria cells were obtained from neonatal (3- to 6-day old) C57BL/6J mice by controlled digestion with collagenase, as previously described (Bellido, et al., 1997. Endocrinology 138:3666-3676). After isolation, cells were cultured in 10% FBS at 1-2×10^4 cells/cm^2 until 90-95% confluence. Subsequently, cells were harvested and frozen for later use. UMR-106-06 cells were cultured in phenol red-free MEM supplemented with 10% FBS, 1% non-essential aminoacids, 100 U/ml penicillin, and 100 μg/ml streptomycin (Sakagami, et al., Manolagas. 1993. J. Bone Miner. Res. 8:811-816).
Nonadherent cells were combined with adherent cells released from the culture dish using trypsin-EDTA, resuspended in medium containing serum, and collected by centrifugation. […] At least 100 cells per condition were counted.
as §1
MLO-Y4 cells were incubated for 1 h in vehicle or 50 nM DEVD-CHO. Subsequently, etoposide, TNF-α, or dexamethasone (Dex) were added at final concentrations of 50 μg/ml, 1 nM, or 10^−6 M, respectively, and cells were incubated for additional 6 h. Dead cells were enumerated by trypan blue uptake.
The percentage of dead cells was determined by trypan blue uptake, as in Methods and Materials. Bars represent the mean ±S.D. of three independent measurements.
Subsequently, etoposide, TNF-α, or dexarnethasone were added to reach final concentrations of 50 μg/ml, 1 nM, or 10^−6 M, respectively, and cells were cultured for 6 h, as in FIG. 1. The percentage of dead cells was determined by trypan blue uptake. Bars represent the mean ±S.D. of three independent measurements. Data were analyzed by two-way ANOVA.

[3] = test system: osteocyte and osteoblast apoptosis in murine vertebral cancellous bone; assay: Murine model of glucocorticoid excess: TUNEL in vertebral bone sections and spinal BMD by DEXA; assay type: in vivo, Male Swiss Webster mice; conditions: alendronate beginning 3 days before prednisolone pellets
Text: To adjust for the difference in the metabolic rate in mice compared to that in humans, the daily glucocorticoid dose was divided by the metabolic weight, i.e. the weight in kg to the 3/4 power (Borchard, et al., 1992. Drug dosage in laboratory animals: a handbook. CRC Press, Inc., Boca Raton, Fla. 514 pp.; Kleiber, M. 1961. The fire of life: an introduction to animal energetics. New York). […] One control group received saline injections with placebo pellet implantation while another group received saline injections plus prednisolone pellets. Dual-energy X-ray absorptiometry (DEXA) was used to determine spinal bone mineral density (spinal BMD) at the end of the 56-day experiment, as previously described (Weinstein et al., 1998. J. Clin. Invest. 102:274-282).
Sections of vertebral bone (L1 to L5) were mounted on silane-coated glass slides (Scientific Device Lab, Inc., Des Plains, Ill.), deplasticized and incubated in 10 mM citrate buffer, pH 7.6, in a microwave oven at 98° C. for 5 minutes (Jilka, et al., 1998. J. Bone Miner. Res. 13:793-802). Slides were then incubated with 0.5% pepsin for 30 minutes at 37° C. Apoptotic cells were detected by the TUNEL reaction as described above using 0.15% CuSO4 for color enhancement of the diaminobenzidine in sections counterstained with 1% methyl green. The TUNEL reaction is noted within cell nuclei and the cells whose nuclei were clearly brown from the streptavidin-horse radish peroxidase conjugate instead of blue-green from the methyl green were interpreted as positive. Plastic-embledded sections of weaned rat mammary tissue were used as a positive control. Negative controls were made by omitting the transferase from the TUNEL reaction. Morphological changes characteristic of apoptosis were carefully examined to minimize ambiguity regarding the interpretation of results. […] Osteocytes were identified inside lacunae in mineralized bone (FIG. 11A). Osteoblasts were identified as cuboidal cells lining the osteoid-covered trabecular perimeter (FIG. 11B).

ERK1/2 = ERK1/2 phosphorylation in MLO-Y4 cells by Western blot; assay type: cell-based, murine; conditions: 10^−7 M
Method: Monolayers were washed with cold 20 mM Tris-HCl (pH 7.5), 150 mM NaCl, 1 mM sodium orthovanadate and lysed in the lysis buffer mentioned above. Insoluble material was pelleted in a microcentrifuge at 14,000×rpm for 10 mn. […] Proteins (10 μg) were separated on 7.5% SDS-polyacrylamide gels and electrotransferred to a polyvinylidene difluoride membrane. Immunoblotting was performed using a mouse monoclonal antibody recognizing tyrosine phosphorylated ERK1/2, or a rabbit polyclonal antibody recognizing total ERK1/2, followed by incubation with either an antimouse or an antirabbit antibody conjugated with horseradish peroxidase. Blots were developed using Chemiluminescence according to the manufacturer's recommendations. Quantitation of the intensity of the bands in the autoradiograms was performed using a scanner (Microtek Lab., Redondo Beach, Calif.).

[4] = cited from earlier work
osteoblast apoptosis = conditions: intermittent PTH administration in mice; decreased from 1.7-2.2%; cited from earlier work

Method for caspase-3: Caspase-3 activity was measured by determining the degradation of the fluorometric substrate DEVD, that contains acid sequence of the caspase-3 cleavage site in poly(ADP-ribose)polymerase (PARP) (Schlegel, et al., 1996. J. Biol. Chem. 271:1841-1844) conjugated with 7-amino-4-trifluoromethyl coumarin (DEVD-AFC). Cells were lysed in 20 mM Tris-HCl (H 7.5), 150 mM NaCl, 1 mM EDTA, 10 mM NaF, 1 mM sodium orthovanadate, 5 μg/ml leupeptin, 0.14 U/ml aprotinin, 1 mM phenylmethylsulfonylfluoride, and 1% Triton X-100. Protein concentration was measured using a Bio-Rad detergent compatible kit (Hercules, Calif.). Lysates (100 μg protein) were incubated with 50 μM DEVD-AFC in 50 mM HEPES, pH 7.4, 100 mM NaCl, 0.1% CHAPS, 10 mM DTT, 1 mM EDTA, 10% glycerol, in the absence or presence of the irreversible inhibitor DEVD-CHO for 60 min. The released fluorescent AFC was measured in a microplate fluorescence reader FL500 (Bio Tek Instruments, Winooski, Vt.) with excitation/emission wavelengths of 340/542 nm.
Caspase-3 activity was determined by measuring the degradation of the fluorometric substrate DEVD-AFC in the absence or presence of the irreversible inhibitor DEVD-CHO, as detailed in Example 5.

In the case of CC(=O)N[C@@H](CS)C(=O)O [N-acetylcysteine, acetarnido-mercaptopropionic acid], the LD50 [1] is listed as 1140 mg/kg.

For NCCCC(O)(P(=O)(O)O)P(=O)(O)O [alendronate, 4-amino-1-hydroxybutylidene-1,1-bisphosphonate], the “inhibition of apoptosis of osteoblastic cells induced by dexamethasone, TNF-α and etoposide” value [2] was “inhibited apoptosis”, the “% of TUNEL positive cells” value (osteocytic MLO-Y4 cells) was 6.16% and the “Number of TUNEL positive cells” value (osteocytic MLO-Y4 cells) was 35. The “number of TUNEL negative cells” value (osteocytic MLO-Y4 cells) was 533, the “number of living MLO-Y4 cells” value (MLO-Y4 osteocytic cells; 10^−6 M dexamethasone 24 h, 10^−7 M alendronate 1 h pretreatment) was “abolished this effect” and the “prevention of apoptosis induced by etoposide or TNF-α” value (MLO-Y4 osteocytic cells; 10^−7 M, 1 h pretreatment, 6 h) was “prevented apoptosis”. For the same molecule, the “cell viability in the absence of pro-apoptotic stimuli” value (MLO-Y4 osteocytic cells; 10^−10 to 10^−3 M) was “did not affect cell viability”, the “inhibition of glucocorticoid-induced apoptosis” value (MLO-Y4 osteocytic cells; 1 h pretreatment) was “Comparable responses” and the “dexamethasone-induced increase in caspase-3 activity” value (caspase-3; 10^−7 M alendronate 1 h, then 10^−6 M dexamethasone 16 h) was “inhibited the dexamethasone-induced increase in caspase-3 activity”. The “caspase-3 activity, TUNEL positive cells and number of living cells” value (caspase-3; alendronate alone, absence of dexamethasone) was “did not affect any of these parameters”, the “bone loss induced by the glucocorticoid” value [3] was “prevented the bone loss” and the “increase in bone cell apoptosis induced by the glucocorticoid” value [3] was “abolished the increase in bone cell apoptosis”. The “earliest time at which increased ERK phosphorylation was observed” value (ERK1/2) was 0.5 min and the “phosphorylation of ERK 1 and 2” value (ERK1/2) was “rapid and transient increase”.

For CC(O)(P(=O)(O)O)P(=O)(O)O [etidronate], the “reduction of resorption depth in human iliac trabecular bone” value ([4]; after one year of treatment) is given as roughly 30%, the “inhibition of glucocorticoid-induced apoptosis” value (MLO-Y4 osteocytic cells; 1 h pretreatment) is given as “Comparable responses” and the “phosphorylation of ERK 1 and 2” value (ERK1/2) is given as “increase in the phosphorylated fraction of ERKs”.

For [F-].[Na+] [sodium fluoride], the “increase in vertebral bone mass” value ([4]; for at least four years) is given as 10 % a year.

B1: PTH: parathyroid hormone, intermittent administration (protein, UniProt P01270 32-115, looked up)
Parathyroid hormone: SVSEIQLMHNLGKHLNSMERVEWLRKKLQDVHNFVALGAPLAPRDAGSQRPRKKEDNVLVESHEKSLGEADKADVNVLTKAKSQ
modifications: Parathyroid hormone
notes: parathyroid hormone, intermittent administration
For B1, the “prevalence of osteoblast apoptosis” value (osteoblast apoptosis) is listed as 0.1-0.4%.
